Assay results reported in PMC6437697 (Journal of Medicinal Chemistry, 2019).

Columns and labels:
Experiment in all cases: KINOMEscan
Type in all cases: binding
Conditions in all cases: read-out: % control activity remaining
CAMK1D = target: T1, CAMK1D (Homo sapiens, UniProt Q8IU85)
T1 construct: purchased Eurofins DiscoverX KINOMEscan

KIT(L576P) = target: T2, KIT(L576P) (Homo sapiens, UniProt P10721, L576P)
T2 construct: purchased Eurofins DiscoverX KINOMEscan

HPK1 = target: T3, HPK1 (Homo sapiens, UniProt Q92918)
T3 construct: purchased Eurofins DiscoverX KINOMEscan
T3 sequence (Q92918 whole entry): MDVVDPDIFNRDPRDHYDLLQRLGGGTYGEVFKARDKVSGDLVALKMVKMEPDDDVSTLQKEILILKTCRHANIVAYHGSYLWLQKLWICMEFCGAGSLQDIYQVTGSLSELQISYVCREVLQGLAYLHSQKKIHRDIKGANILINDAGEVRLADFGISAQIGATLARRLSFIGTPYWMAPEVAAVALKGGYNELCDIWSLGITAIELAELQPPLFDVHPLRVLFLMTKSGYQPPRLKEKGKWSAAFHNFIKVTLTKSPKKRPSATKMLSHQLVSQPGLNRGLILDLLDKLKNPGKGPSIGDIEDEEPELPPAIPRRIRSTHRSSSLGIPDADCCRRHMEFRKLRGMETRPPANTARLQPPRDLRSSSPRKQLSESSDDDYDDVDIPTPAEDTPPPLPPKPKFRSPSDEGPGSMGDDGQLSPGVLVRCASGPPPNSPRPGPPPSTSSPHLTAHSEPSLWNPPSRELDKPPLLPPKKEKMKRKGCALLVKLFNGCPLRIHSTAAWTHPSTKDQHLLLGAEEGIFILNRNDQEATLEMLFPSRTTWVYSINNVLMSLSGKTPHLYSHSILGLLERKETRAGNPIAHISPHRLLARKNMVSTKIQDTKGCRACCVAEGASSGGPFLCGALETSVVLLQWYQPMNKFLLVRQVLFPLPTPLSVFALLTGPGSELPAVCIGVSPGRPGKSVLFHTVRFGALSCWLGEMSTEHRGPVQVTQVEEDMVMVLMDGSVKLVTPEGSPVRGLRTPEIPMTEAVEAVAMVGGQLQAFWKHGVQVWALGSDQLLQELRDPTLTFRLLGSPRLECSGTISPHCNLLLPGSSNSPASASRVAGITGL

MAP3K15 = target: T4, MAP3K15 (Homo sapiens, UniProt Q6ZN16)
T4 construct: purchased Eurofins DiscoverX KINOMEscan
T4 sequence (Q6ZN16 1-1313): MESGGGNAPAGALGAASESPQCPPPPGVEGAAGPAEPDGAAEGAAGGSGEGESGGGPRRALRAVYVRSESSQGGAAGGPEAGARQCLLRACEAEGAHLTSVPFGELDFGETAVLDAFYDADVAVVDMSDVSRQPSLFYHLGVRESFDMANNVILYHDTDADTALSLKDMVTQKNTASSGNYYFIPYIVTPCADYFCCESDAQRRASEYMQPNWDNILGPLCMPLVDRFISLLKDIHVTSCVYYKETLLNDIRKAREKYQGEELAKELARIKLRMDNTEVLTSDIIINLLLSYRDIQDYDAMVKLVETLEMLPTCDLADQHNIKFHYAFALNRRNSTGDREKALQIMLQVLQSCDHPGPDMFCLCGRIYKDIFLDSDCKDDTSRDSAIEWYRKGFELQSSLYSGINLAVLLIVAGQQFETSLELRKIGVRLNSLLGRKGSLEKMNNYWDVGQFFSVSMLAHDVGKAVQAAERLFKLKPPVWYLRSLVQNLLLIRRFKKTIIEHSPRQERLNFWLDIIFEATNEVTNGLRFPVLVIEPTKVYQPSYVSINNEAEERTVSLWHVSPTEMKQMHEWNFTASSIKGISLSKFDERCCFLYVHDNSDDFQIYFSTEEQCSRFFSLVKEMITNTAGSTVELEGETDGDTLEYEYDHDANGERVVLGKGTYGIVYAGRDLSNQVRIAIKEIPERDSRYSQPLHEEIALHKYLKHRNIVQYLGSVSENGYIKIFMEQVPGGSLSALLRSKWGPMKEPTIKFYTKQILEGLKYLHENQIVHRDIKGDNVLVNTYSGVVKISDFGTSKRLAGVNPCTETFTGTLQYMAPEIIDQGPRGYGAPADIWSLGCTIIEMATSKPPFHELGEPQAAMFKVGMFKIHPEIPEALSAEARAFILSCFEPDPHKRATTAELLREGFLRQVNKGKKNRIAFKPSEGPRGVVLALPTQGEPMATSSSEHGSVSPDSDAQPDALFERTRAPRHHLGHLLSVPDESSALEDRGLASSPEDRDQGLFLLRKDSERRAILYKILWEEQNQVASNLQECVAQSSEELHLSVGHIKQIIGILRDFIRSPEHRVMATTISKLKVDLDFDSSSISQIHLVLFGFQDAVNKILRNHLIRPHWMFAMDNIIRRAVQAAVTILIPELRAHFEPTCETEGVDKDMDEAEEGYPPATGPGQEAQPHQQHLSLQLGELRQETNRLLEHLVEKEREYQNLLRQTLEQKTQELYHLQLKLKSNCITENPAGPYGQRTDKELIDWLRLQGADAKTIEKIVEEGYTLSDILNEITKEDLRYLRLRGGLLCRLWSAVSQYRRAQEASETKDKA

TBK1 = target: T5, TBK1 (Homo sapiens, UniProt Q9UHD2)
T5 construct: purchased Eurofins DiscoverX KINOMEscan
T5 sequence (Q9UHD2 1-729): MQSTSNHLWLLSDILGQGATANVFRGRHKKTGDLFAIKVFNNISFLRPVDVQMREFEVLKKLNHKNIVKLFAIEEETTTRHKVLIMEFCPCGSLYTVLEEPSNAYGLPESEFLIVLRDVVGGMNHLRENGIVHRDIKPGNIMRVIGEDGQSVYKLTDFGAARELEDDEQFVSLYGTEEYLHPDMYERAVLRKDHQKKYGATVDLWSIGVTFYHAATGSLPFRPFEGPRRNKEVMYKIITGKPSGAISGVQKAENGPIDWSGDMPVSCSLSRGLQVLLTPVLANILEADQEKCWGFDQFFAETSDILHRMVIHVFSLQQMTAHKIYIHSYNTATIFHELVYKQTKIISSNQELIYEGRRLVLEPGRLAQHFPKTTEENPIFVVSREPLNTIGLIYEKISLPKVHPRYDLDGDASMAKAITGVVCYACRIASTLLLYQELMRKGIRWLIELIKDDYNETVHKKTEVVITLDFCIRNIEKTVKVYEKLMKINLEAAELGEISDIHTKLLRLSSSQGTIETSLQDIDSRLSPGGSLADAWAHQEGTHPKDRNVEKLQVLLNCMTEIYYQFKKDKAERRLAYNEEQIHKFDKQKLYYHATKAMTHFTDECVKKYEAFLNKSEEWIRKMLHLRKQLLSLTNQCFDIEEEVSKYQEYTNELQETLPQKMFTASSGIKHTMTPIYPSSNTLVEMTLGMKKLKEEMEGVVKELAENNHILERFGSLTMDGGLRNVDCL

IRAK3 = target: T6, IRAK3 (Homo sapiens, UniProt Q9Y616)
T6 construct: purchased Eurofins DiscoverX KINOMEscan
T6 sequence (Q9Y616 1-596): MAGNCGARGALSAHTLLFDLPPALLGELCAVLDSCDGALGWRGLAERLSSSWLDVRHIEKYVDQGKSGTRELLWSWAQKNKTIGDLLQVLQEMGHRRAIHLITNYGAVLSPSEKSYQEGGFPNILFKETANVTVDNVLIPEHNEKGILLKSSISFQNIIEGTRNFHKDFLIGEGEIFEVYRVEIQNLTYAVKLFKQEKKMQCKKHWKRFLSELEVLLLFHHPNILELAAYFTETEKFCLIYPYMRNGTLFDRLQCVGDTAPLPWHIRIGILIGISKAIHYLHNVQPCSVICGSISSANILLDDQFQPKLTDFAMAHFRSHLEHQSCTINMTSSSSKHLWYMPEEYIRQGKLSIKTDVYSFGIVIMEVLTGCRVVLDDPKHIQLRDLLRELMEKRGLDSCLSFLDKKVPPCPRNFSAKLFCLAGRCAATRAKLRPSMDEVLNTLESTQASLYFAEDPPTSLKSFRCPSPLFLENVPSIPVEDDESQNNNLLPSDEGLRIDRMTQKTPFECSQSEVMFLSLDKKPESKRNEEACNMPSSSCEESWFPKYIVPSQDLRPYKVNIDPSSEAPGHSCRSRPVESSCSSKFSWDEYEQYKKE

JNK1 = target: T7, JNK1 (Homo sapiens, UniProt P45983)
T7 construct: purchased Eurofins DiscoverX KINOMEscan
T7 sequence (P45983 whole entry): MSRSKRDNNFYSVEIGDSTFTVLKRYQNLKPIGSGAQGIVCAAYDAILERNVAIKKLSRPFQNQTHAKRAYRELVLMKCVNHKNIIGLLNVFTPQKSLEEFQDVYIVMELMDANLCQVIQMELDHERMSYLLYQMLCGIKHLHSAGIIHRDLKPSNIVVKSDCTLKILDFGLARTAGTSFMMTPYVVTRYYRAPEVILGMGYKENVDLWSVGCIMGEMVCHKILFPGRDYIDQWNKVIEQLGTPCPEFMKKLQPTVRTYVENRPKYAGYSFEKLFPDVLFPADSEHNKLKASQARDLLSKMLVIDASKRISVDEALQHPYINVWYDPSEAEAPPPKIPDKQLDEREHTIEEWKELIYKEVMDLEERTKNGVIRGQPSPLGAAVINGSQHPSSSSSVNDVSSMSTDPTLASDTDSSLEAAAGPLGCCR

DAPK2 = target: T8, DAPK2 (Homo sapiens, UniProt Q9UIK4)
T8 construct: purchased Eurofins DiscoverX KINOMEscan
T8 sequence (Q9UIK4 whole entry): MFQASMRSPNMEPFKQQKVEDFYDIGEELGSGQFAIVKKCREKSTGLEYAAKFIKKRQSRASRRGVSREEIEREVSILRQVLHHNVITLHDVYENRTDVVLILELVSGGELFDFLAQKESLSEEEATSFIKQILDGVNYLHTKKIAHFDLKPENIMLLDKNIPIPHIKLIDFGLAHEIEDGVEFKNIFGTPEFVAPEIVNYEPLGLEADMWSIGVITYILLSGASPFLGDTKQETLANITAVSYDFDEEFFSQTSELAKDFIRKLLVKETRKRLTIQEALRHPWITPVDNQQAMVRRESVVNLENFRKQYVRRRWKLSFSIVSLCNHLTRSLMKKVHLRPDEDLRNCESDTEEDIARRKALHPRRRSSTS

T1 sequence (Q8IU85 whole entry): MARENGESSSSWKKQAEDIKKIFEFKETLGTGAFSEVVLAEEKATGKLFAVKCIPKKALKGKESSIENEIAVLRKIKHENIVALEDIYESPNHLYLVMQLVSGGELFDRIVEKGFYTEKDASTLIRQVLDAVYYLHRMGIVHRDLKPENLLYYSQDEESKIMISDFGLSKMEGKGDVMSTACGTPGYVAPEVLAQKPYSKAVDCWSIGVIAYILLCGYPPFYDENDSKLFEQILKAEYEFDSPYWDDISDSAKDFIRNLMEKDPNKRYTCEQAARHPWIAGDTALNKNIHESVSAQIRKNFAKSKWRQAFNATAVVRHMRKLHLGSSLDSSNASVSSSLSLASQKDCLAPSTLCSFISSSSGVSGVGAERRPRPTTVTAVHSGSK
T2 sequence (P10721 26-976 L576P): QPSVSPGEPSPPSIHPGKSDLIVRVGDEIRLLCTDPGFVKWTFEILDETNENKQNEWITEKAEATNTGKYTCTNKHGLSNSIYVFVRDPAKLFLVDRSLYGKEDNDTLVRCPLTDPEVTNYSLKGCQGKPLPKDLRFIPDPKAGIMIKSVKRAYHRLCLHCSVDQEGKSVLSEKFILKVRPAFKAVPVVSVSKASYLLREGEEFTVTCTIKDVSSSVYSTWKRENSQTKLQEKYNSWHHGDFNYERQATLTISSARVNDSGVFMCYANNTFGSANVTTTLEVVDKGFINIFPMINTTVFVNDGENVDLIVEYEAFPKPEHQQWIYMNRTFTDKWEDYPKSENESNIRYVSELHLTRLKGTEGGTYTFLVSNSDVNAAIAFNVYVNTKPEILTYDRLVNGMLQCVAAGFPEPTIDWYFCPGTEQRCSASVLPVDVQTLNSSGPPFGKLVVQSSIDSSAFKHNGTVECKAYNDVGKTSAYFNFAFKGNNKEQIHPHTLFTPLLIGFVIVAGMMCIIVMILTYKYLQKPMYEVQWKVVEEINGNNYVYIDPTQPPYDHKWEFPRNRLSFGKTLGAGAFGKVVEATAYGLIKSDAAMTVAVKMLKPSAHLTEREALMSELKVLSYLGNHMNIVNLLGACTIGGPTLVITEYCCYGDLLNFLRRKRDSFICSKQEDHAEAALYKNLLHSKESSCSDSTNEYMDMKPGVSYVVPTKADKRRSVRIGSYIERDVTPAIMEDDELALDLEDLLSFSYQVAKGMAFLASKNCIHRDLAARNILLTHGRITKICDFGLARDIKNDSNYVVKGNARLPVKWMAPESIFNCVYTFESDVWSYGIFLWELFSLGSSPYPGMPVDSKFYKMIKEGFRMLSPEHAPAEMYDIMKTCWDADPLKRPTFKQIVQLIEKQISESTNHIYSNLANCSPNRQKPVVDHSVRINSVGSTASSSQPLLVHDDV

| SMILES | remaining binding at 1 µM (CAMK1D) [%] | remaining binding at 1 µM (KIT(L576P)) [%] | remaining binding at 1 µM (HPK1) [%] | remaining binding at 1 µM (MAP3K15) [%] | remaining binding at 1 µM (TBK1) [%] | remaining binding at 1 µM (IRAK3) [%] | remaining binding at 1 µM (JNK1) [%] | remaining binding at 1 µM (DAPK2) [%] |
| --- | --- | --- | --- | --- | --- | --- | --- | --- |
| Clc1cc(NCC2CC2)c2ncc(-c3ccc4[nH]ncc4c3)n2n1 [compound 2, 6-Chloro-N-(cyclopropylmethyl)-3-(1H-indazol-5-yl)imidazo[1,2-b]pyridazin-8-amine] | 100 | 1.2 | 75 | 83 | 71 | 100 | 91 | 91 |
| O=C(CN1CCOCC1)N[C@H]1CC[C@H](Nc2cc(Cl)nn3c(-c4ccc5[nH]ncc5c4)cnc23)CC1 [compound 26] | 71 | 0 | 88 | 98 | 90 | 49 | 83 | 69 |
| CN1CCC(CNc2cc(Cl)nn3c(-c4cc5nc(Nc6ccccc6)[nH]c5cc4F)cnc23)CC1 [compound 31, 6-Chloro-3-(6-fluoro-2-(phenylamino)-1H-benzo[d]imidazol-5-yl)-N-((1-methylpiperidin-4-yl)methyl)imidazo[1,2-b]pyridazin-8-amine] | 85 | 61 | 97 | 100 | 76 | 95 | 67 | 98 |
